The values below come from US12286435B2, “Compound having benzo seven-membered ring structure, preparation method therefor, and use thereof” (BIONNA (BEIJING) MEDICAL TECHNOLOGY CO., LTD., priority 2019, dated 2025).

Where only a bound is given, the exact number is not on record here.

The target in one experiment is BRD4 BD2 protein (Homo sapiens (Human), UniProt O60885). Kind of experiment: Fluorescence polarization binding affinity (Ki) with BRD4 BD2 protein. Also noted: BRD4 BD2 Ki: reference not given here. The following applies: fluorescence polarization; Ki calculated from IC50.
For another experiment, the target named is BRD4 BD1 protein (Homo sapiens (Human), UniProt O60885). Kind of experiment: Fluorescence polarization binding affinity (Ki) with BRD4 BD1 protein. The note with it: fluorescence polarization; Ki calculated from IC50.
Experiment [1] relates to multiple myeloma MM.1S cell line. The experiment in a line: Cell viability (CCK-8), multiple myeloma MM.1S. In kind it is cell-based. The note with it: Homo sapiens, MM1.S, 96 h, MM.1S cells, 4 days, CCK-8, 50% inhibition of cell growth. The procedure:
3. Determination of cell viability of the compound
The sample to be tested was dissolved with 100% dimethyl sulfoxide to prepare a 20 mM stock solution of the compound, which was diluted with 100% dimethyl sulfoxide to the highest compound concentration required for the experiment (2.5 mM).
First, 145 uL of a complete cell culture medium was added to wells B1-G1 of a 96-well flat-bottomed tansparent cell culture plate, and 100 uL of the complete medium was added to wells B2-G12, respectively. Then, 5 uL of the 2.5 mM solution of the compound was added to wells B1-D1 and E1-G1 respectively, and then diluted gradiently by 3-folds to B12-D12 and E12-G12 in sequence. Finally, 50 uL of the solution of the cells to be tested was added to each well, with about 3000-5000 cells per well, and a total volume of 150 uL per well.
In the experiment, in addition to the tested compound, two other control groups were set up: 1) a control group adding the cells and the complete medium, but without adding the compound; 2) a control group adding the complete medium only, without adding the cells and the compound. The 96-well plate was placed in a 37° C. cell culture incubator containing 5% carbon dioxide for 4 days, added with 15 uL of a CCK-8 reagent per well, and then incubated at 37° C. for 2-4 hours. The 96-well plate was read on a TECAN microplate reader, and the absorbance value at 450 nm wavelength was taken.
The effect of different concentrations of the compound on cell viability was calculated by the following equation: [absorption value of the experimental group−absorption value of pure cell culture medium without the cells or the compound]/[absorption value of the control group with the tumor cells but no testing compound−absorption value of pure cell culture medium without the cell or the compound]×100%.
The above data were precessed by software, and the IC50 value was the concentration of the compound corresponding to the 50% inhibition rate of cell growth.
Based on the above test method of the compound on cell viability, a variety of […] cancer cell lines were tested, using multiple myeloma MM.1S, breast cancer MDA-MB-231 and leukemia MV4-11 cell lines as exemples. Using this test method, the IC50 values of partial compounds in the examples of the present invention measured in multiple myeloma MM.1S, breast cancer MDA-MB-231 cell lines and leukemia MV4-11 cell lines were shown in Table 2.

Usually Ki stands for a dissociation constant, usually derived from enzyme kinetics or from competition with a known ligand. As usually defined, the IC50 is the concentration that gives 50% inhibition. As to `Cc1nnn2c1-c1ccc(-c3cnn(C)c3)cc1C(Oc1ccc(F)cc1F)CC2` (centres unmarked) [BE95, 7-(2,4-difluorophenoxy)-1-methyl-9-(1-methyl-1H-pyrazol-4-yl)-6,7-dihydro-5H-benzo[c][1,2,3]triazolo[1,5-a]azepine], the results for the Ki on BRD4 BD2 protein and on BRD4 BD1 protein were 86.9 nM and 577 nM, respectively. Further, it took 3190 nM to reach half-maximal inhibition in experiment [1] (IC50).
The corresponding values for `Cc1nnn2c1-c1ccc(-c3cnn(C)c3)cc1C(Nc1cccc(N(C)C)c1)CC2` (centres unmarked) [LB152, N^1,N^1-dimethyl-N^3-(1-methyl-9-(1-methyl-1H-pyrazol-4-yl)-6,7-dihydro-5H-benzo[c][1,2,3]triazolo[1,5-a]azepin-7-yl)benzene-1,3-diamine] are 16.7 nM, 75.5 nM and 26.2 nM.
In the case of `Cc1nnn2c1-c1ccc(-c3cnn(C)c3)cc1C(Nc1ccccc1CC#N)CC2` (centres unmarked) [LC09, 2-(2-((1-methyl-9-(1-methyl-1H-pyrazol-4-yl)-6,7-dihydro-5H-benzo[c][1,2,3]triazolo[1,5-a]azepin-7-yl)amino)phenyl)acetonitrile], on BRD4 BD2 protein, the “BRD4 BD2 Ki” value is “<Kd”. At BRD4 BD1 protein, the Ki was 15.5 nM. The molecule further gave a half-inhibitory concentration (IC50) in experiment [1] of 39.3 nM.
With `Cc1nnn2c1-c1ccc(-c3cnn(C)c3)cc1C(Nc1ccc(N(C)C)cc1)CC2` (centres unmarked) [LB17, N^1,N^1-dimethyl-N^4-(1-methyl-9-(1-methyl-1H-pyrazol-4-yl)-6,7-dihydro-5H-benzo[c][1,2,3]triazolo[1,5-a]azepin-7-yl)benzene-1,4-diamine], the Ki on BRD4 BD2 protein was 44 nM; on BRD4 BD1 protein, 236 nM. The molecule further had an IC50 in experiment [1] of 119 nM.
For the molecule `CNC(=O)c1ccccc1NC1CCn2nnc(C)c2-c2ccc(-c3cnn(C)c3)cc21` (centres unmarked) [LB186], the results for the Ki on BRD4 BD2 protein and at BRD4 BD1 protein were 13.7 nM and 82.2 nM, respectively. Besides, the IC50 in experiment [1] was found to be 36.6 nM.
For `Cc1nnn2c1-c1ccc(-c3cnn(C)c3)cc1C(Nc1ccc3cccnc3c1)CC2` (centres unmarked) [LB89, 1-methyl-9-(1-methyl-1H-pyrazol-4-yl)-N-(quinolin-7-yl)-6,7-dihydro-5H-benzo[c][1,2,3]triazolo[1,5-a] azepin-7-amine] the same measures were 50.5 nM, 426 nM and 143 nM.
The corresponding values for `Cc1nnn2c1-c1ccc(C3=CCN(C)CC3)cc1C(Nc1cccc(Cl)c1)CC2` (centres unmarked) [LD07, N-(3-chlorophenyl)-1-methyl-9-(1-methyl-1,2,3,6-tetrahydropyridin-4-yl)-6,7-dihydro-5H-benzo[c][1,2,3]triazolo[1,5-a]azepin-7-amine 2,2,2-trifluoroacetate] are 33.1 nM, 770 nM and 146 nM.
Consider `Cc1nnn2c1-c1ccc(-c3cnn(C)c3)cc1C(Nc1ccc(C(N)=O)cc1)CC2` (centres unmarked) [LB32, 4-((1-methyl-9-(1-methyl-1H-pyrazol-4-yl)-6,7-dihydro-5H-benzo[c][1,2,3]triazolo[1,5-a]azepin-7-yl)amino)benzamide], for which the Ki was 43.7 nM at BRD4 BD2 protein and 235 nM on BRD4 BD1 protein. In addition, the IC50 in experiment [1] worked out at 602 nM.
For `Cc1nnn2c1-c1ccc(-c3cnn(C)c3)cc1C(Nc1ccc(CCO)cc1)CC2` (centres unmarked) [LB24, 2-(4-((1-methyl-9-(1-methyl-1H-pyrazol-4-yl)-6,7-dihydro-5H-benzo[c][1,2,3]triazolo[1,5-a]azepin-7-yl)amino)phenyl)ethan-1-ol] the same measures were 22.4 nM, 64.5 nM and 51.7 nM.
The corresponding values for `Cc1nnn2c1-c1ccc(-c3cnn(C)c3)cc1C(Nc1cccc3[nH]ccc13)CC2` (centres unmarked) [LB114, N-(1H-indo1-4-yl)-1-methyl-9-(1-methyl-1H-pyrazol-4-yl)-6,7-dihydro-5H-benzo[c][1,2,3]triazolo[1,5-a]azepin-7-amine] are 8.8 nM, 45.3 nM and 1.2 nM.
The corresponding values for `Cc1nnn2c1-c1ccc(-c3cnn(C)c3)cc1C(Nc1ccc(CC(=O)O)cc1)CC2` (centres unmarked) [LB36, 2-(4-((1-methyl-9-(1-methyl-1H-pyrazol-4-yl)-6,7-dihydro-5H-benzo[c][1,2,3]triazolo[1,5-a]azepin-7-yl)amino)phenyl)acetic acid] are 42.5 nM, 97.6 nM and 412 nM.
Take `CC(=O)N1CC=C(c2ccc3c(c2)C(Nc2cccc(Cl)c2)CCn2nnc(C)c2-3)CC1` (centres unmarked) [BH29, 1-(4-(7-((3-chlorophenyl)amino)-1-methyl-6,7-dihydro-5H-benzo[c][1,2,3]triazolo[1,5-a]azepin-9-yl)-3,6-dihydropyridin-1(2H)-yl)ethan-1-one]: the results for the Ki at BRD4 BD2 protein and on BRD4 BD1 protein were 1.26 nM and 39.5 nM, respectively. The same molecule displayed an IC50 in experiment [1] of 1 nM.
The corresponding values for `COC(=O)Cc1cccc(NC2CCn3nnc(C)c3-c3ccc(-c4cnn(C)c4)cc32)c1` (centres unmarked) [LB63, methyl 2-(3-((1-methyl-9-(1-methyl-1H-pyrazol-4-yl)-6,7-dihydro-5H-benzo[c][1,2,3]triazolo[1,5-a]azepin-7-yl)amino)phenyl)acetate] are 14 nM, 77.8 nM and 160 nM.
For `Cc1nnn2c1-c1ccc(-c3cnn(C)c3)cc1C(Nc1ccc3cc[nH]c3c1)CC2` (centres unmarked) [LB113, N-(1H-indo1-6-yl)-1-methyl-9-(1-methyl-1H-pyrazol-4-yl)-6,7-dihydro-5H-benzo[c][1,2,3]triazolo[1,5-a]azepin-7-amine] the same measures were 7.4 nM, 38 nM and 11.2 nM.
`COC(=O)Cc1ccc(NC2CCn3nnc(C)c3-c3ccc(-c4cnn(C)c4)cc32)cc1` (centres unmarked) [LB38, methyl 2-(4-((1-methyl-9-(1-methyl-1H-pyrazol-4-yl)-6,7-dihydro-5H-benzo[c][1,2,3]triazolo[1,5-a]azepin-7-yl)amino)phenyl)acetate] returned an IC50 in experiment [1] of 32.9 nM.
Still for that read-out and setting: the value for `Cc1nnn2c1-c1ccc(-c3cnn(C)c3)cc1C(Nc1cccc(CCO)c1)CC2` (centres unmarked) [LB71, 2-(3-((1-methyl-9-(1-methyl-1H-pyrazol-4-yl)-6,7-dihydro-5H-benzo[c][1,2,3]triazolo[1,5-a]azepin-7-yl)amino)phenyl)ethanol] was 151 nM.
Take `Cc1nnn2c1-c1ccc(-c3cnn(C)c3)cc1C(Nc1ccccc1Cl)CC2` (centres unmarked) [LC191, N-(2-chlorophenyl)-1-methyl-9-(1-methyl-1H-pyrazol-4-yl)-6,7-dihydro-5H-benzo[c][1,2,3]triazolo[1,5-a]azepin-7-amine]: the Ki is 11.2 nM at BRD4 BD2 protein and 51.8 nM on BRD4 BD1 protein.
For `Cc1nnn2c1-c1ccc(C3=CCNCC3)cc1C(Nc1cc(F)cc(Cl)c1)CC2` (centres unmarked) [BH06, N-(3-chloro-5-fluorophenyl)-1-methyl-9-(1,2,3,6-tetrahydropyridin-4-yl)-6,7-dihydro-5H-benzo[c][1,2,3]triazolo[1,5-a]azepin-7-amine 2,2,2-trifluoroacetate] the same measures were 35.7 nM and 596 nM.
For `Cc1nnn2c1-c1ccc(C3=CCNCC3)cc1C(N(C=O)c1cccc(Cl)c1)CC2` (centres unmarked) [LC193, N-(3-chlorophenyl)-N-(1-methyl-9-(1,2,3,6-tetrahydropyridin-4-yl)-6,7-dihydro-5H-benzo[c][1,2,3]triazolo[1,5-a]azepin-7-yl)formamide 2,2,2-trifluoroacetate] the same measures were 698 nM and > 4000 nM.
With `Cc1nnn2c1-c1ccc(-c3cnn(C)c3)cc1[C@H](Nc1cccc(Cl)c1)CC2` [RE124, (R)—N-(3-chlorophenyl)-1-methyl-9-(1-methyl-1H-pyrazol-4-yl)-6,7-dihydro-5H-benzo[c][1,2,3]triazolo[1,5-a]azepin-7-amine], the inhibition constant Ki was < 1 nM on BRD4 BD2 protein and 9.92 ± 3.36 nM at BRD4 BD1 protein.
The corresponding values for `Cc1nnn2c1-c1ccc(C3=CCN(C(C)C)CC3)cc1[C@@H](Nc1cccc(Cl)c1)CC2` [RE10 (S), (7S)—N-(3-chlorophenyl)-9-(1-isopropyl-1,2,3,6-tetrahydropyridin-4-yl)-1-methyl-6,7-dihydro-5H-benzo[c][1,2,3]triazolo[1,5-a]azepin-7-amine 2,2,2-trifluoroacetate] are 177 nM and 884 nM.
Turning to `COc1ccc2c(c1)C(Nc1ccc(Cl)cc1)CCc1onc(C)c1-2` (centres unmarked) [FA02, N-(4-chlorophenyl)-8-methoxy-1-methyl-5,6-dihydro-4H-benzo[6,7]cyclohepta[1,2-d]isoxazol-6-amine], the values for the Ki on BRD4 BD2 protein and at BRD4 BD1 protein were 37.1 nM and 58.3 nM, respectively.
